# Reference: patent US12077523B2, “N-(isopropyl-triazolyl)pyridinyl)-heteroaryl-carboxamide derivatives and use thereof” (HK INNO.N CORPORATION, priority 2018, dated 2024)
# Target: T1, ASK-1 enzyme (Homo sapiens, UniProt Q99683)
# T1 construct: purchased Signal Chem M13-11G-10
# Assay: Inhibitory ability against ASK-1 enzyme activity (ADP-Glo Kinase Assay)
# Format: biochemical
# Conditions: 250 μM ATP, MBP substrate, 15 ng ASK-1 enzyme, 30° C. 40 minutes
# Protocol: Experimental Example 1: Assay of Inhibitory Ability Against ASK-1 Enzyme Activity (ADP-Glo™ Kinase Assay)
# In order to evaluate the inhibitory ability of the compounds of Examples 1 to 24 against ASK-1 enzyme activity, the following experiment was carried out using ADP-Glo™ (Promega, Cat. No. V9101). Each of the compounds was prepared into a solution at concentrations of 0.32 nM, 1.6 nM, 8 nM, 40 nM, 200 nM, 1,000 nM by adding a kinase buffer solution (40 mM Tris, 20 mM MgCl2, 0.1 mg/mL bovine serum albumin in H2O). Subsequently, 250 μM of ATP (Promega, Cat. No. V915A) and 0.5 μg/μL of MBP substrate (Signal Chem, Cat. No. 42-51N) were added thereto, and the mixture was reacted at 30° C. for 40 minutes in the presence of 15 ng of ASK-1 enzyme (Signal Chem, Cat. No. M13-11G-10). Then, the ADP-Glo™ reagent and a kinase detection reagent were sequentially added thereto and reacted for 40 minutes and 10 minutes, respectively. After completion of the reaction, luminescence was measured using a Synergy™ NEO microplate reader (BioTEK, NEOB-1311189).
# The inhibitory ability of the compounds of Examples 1 to 24 against ASK-1 enzyme activity was verified by analyzing data from the measured RLU values. Specifically, the inhibitory ability against ASK-1 enzyme activity was assessed by deriving the residual activity percentage of the ASK-1 enzyme in the samples treated with the compounds at the concentration to be tested, while using the RLU value of the sample not treated with the compounds as a 100% control.
# T1 sequence (Q99683 649-946 limits assumed): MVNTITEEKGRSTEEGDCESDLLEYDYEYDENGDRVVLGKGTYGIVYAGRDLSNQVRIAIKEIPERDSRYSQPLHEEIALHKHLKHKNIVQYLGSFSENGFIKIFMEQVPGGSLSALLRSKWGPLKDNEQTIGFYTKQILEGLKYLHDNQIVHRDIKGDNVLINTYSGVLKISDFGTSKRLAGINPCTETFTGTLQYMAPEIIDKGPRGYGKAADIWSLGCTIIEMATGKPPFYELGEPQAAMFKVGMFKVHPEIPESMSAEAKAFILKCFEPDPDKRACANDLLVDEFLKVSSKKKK
row,SMILES,IC50 [nM]
1,"CC(C)n1cnnc1-c1cccc(NC(=O)c2cc(-c3ccccc3)c[nH]2)n1 [Example 6, N-(6-(4-isopropyl-4H-1,2,4-triazol-3-yl)pyridin-2-yl)-4-phenyl-1H-pyrrole-2-carboxamide]",6.5
2,"CCOc1ccc(-c2ccc(C(=O)Nc3cccc(-c4nncn4C(C)C)n3)[nH]2)cc1 [Example 24, 5-(4-ethoxyphenyl)-N-(6-(4-isopropyl-4H-1,2,4-triazol-3-yl)pyridin-2-yl)-1H-pyrrole-2-carboxamide]",7.5
3,"CCc1c[nH]c(C(=O)Nc2cccc(-c3nncn3C(C)C)n2)c1 [Example 4, 4-ethyl-N-(6-(4-isopropyl-4H-1,2,4-triazol-3-yl)pyridin-2-yl)-1H-pyrrole-2-carboxamide]",8.3
4,"Cc1ncc(-c2ccc(C(=O)Nc3cccc(-c4nncn4C(C)C)n3)[nH]2)cn1 [Example 12, N-(6-(4-isopropyl-4H-1,2,4-triazol-3-yl)pyridin-2-yl)-5-(2-methylpyrimidine-5-yl)-1H-pyrrole-2-carboxamide]",9.9
5,"CCc1ccc(C(=O)Nc2cccc(-c3nncn3C(C)C)n2)[nH]1 [Example 11, 5-ethyl-N-(6-(4-isopropyl-4H-1,2,4-triazol-3-yl)pyridin-2-yl)-1H-pyrrole-2-carboxamide]",49.7
6,"CC(C)n1cnnc1-c1cccc(NC(=O)c2ccc(-c3cccs3)[nH]2)n1 [Example 17, N-(6-(4-isopropyl-4H-1,2,4-triazol-3-yl)pyridin-2-yl)-5-(thiophene-2-yl)-1H-pyrrole-2-carboxamide]",7.9
7,"Cc1ccc(-c2ccc(C(=O)Nc3cccc(-c4nncn4C(C)C)n3)[nH]2)cc1 [Example 10, N-(6-(4-isopropyl-4H-1,2,4-triazol-3-yl)pyridin-2-yl)-5-p-tolyl-1H-pyrrole-2-carboxamide]",10.2
8,"Cc1ccc(C(=O)Nc2cccc(-c3nncn3C(C)C)n2)[nH]1 [Example 8, N-(6-(4-isopropyl-4H-1,2,4-triazol-3-yl)pyridin-2-yl)-5-methyl-1H-pyrrole-2-carboxamide]",34.4
9,"COCc1c[nH]c(C(=O)Nc2cccc(-c3nncn3C(C)C)n2)c1 [Example 3, N-(6-(4-isopropyl-4H-1,2,4-triazol-3-yl)pyridin-2-yl)-4-(methoxymethyl)-1H-pyrrole-2-carboxamide]",7.7
10,"CC(C)n1cnnc1-c1cccc(NC(=O)c2ccc(-c3ccccc3)[nH]2)n1 [Example 9, N-(6-(4-isopropyl-4H-1,2,4-triazol-3-yl)pyridin-2-yl)-5-phenyl-1H-pyrrole-2-carboxamide]",5.8
11,"CC(C)n1cnnc1-c1cccc(NC(=O)c2ccc(-c3ccc(S(C)(=O)=O)cc3)[nH]2)n1 [Example 13, N-(6-(4-isopropyl-4H-1,2,4-triazol-3-yl)pyridin-2-yl)-5-(4-(methylsulfonyl)phenyl)-1H-pyrrole-2-carboxamide]",4.4
12,"CC(C)n1cnnc1-c1cccc(NC(=O)c2ccc(-c3ccc(F)cc3)[nH]2)n1 [Example 23, 5-(4-fluorophenyl)-N-(6-(4-isopropyl-4H-1,2,4-triazol-3-yl)pyridin-2-yl)-1H-pyrrole-2-carboxamide]",5.9
13,"Cc1ccc(-c2ccc(C(=O)Nc3cccc(-c4nncn4C(C)C)n3)[nH]2)cc1F [Example 19, 5-(3-fluoro-4-methylphenyl)-N-(6-(4-isopropyl-4H-1,2,4-triazol-3-yl)pyridin-2-yl)-1H-pyrrole-2-carboxamide]",5.2
14,"Cc1cccc(-c2c[nH]c(C(=O)Nc3cccc(-c4nncn4C(C)C)n3)c2)c1 [Example 2, N-(6-(4-isopropyl-4H-1,2,4-triazol-3-yl)pyridin-2-yl)-4-m-tolyl-1H-pyrrole-2-carboxamide]",4

# The remaining molecules from weak to strong by IC50, led by results:
row,IC50 [nM],SMILES
1,11.6,"CC(C)n1cnnc1-c1cccc(NC(=O)c2ccc[nH]2)n1 [Example 7, N-(6-(4-isopropyl-4H-1,2,4-triazol-3-yl)pyridin-2-yl)-1H-pyrrole-2-carboxamide]"
2,9.9,"Cc1c[nH]c(C(=O)Nc2cccc(-c3nncn3C(C)C)n2)c1 [Example 1, N-(6-(4-isopropyl-4H-1,2,4-triazol-3-yl)pyridin-2-yl)-4-methyl-1H-pyrrole-2-carboxamide]"
3,8.5,"Cc1cc(C)cc(-c2ccc(C(=O)Nc3cccc(-c4nncn4C(C)C)n3)[nH]2)c1 [Example 15, 5-(3,5-dimethylphenyl)-N-(6-(4-isopropyl-4H-1,2,4-triazol-3-yl)pyridin-2-yl)-1H-pyrrole-2-carboxamide]"
4,6,"Cc1ccc(-c2c[nH]c(C(=O)Nc3cccc(-c4nncn4C(C)C)n3)c2)cc1 [Example 5, N-(6-(4-isopropyl-4H-1,2,4-triazol-3-yl)pyridin-2-yl)-4-p-tolyl-1H-pyrrole-2-carboxamide]"
5,5.8,"Cc1cccc(-c2ccc(C(=O)Nc3cccc(-c4nncn4C(C)C)n3)[nH]2)c1 [Example 14, N-(6-(4-isopropyl-4H-1,2,4-triazol-3-yl)pyridin-2-yl)-5-m-tolyl-1H-pyrrole-2-carboxamide]"
6,5.4,"CC(C)n1cnnc1-c1cccc(NC(=O)c2ccc(-c3ccc(Cl)cc3)[nH]2)n1 [Example 16, 5-(4-chlorophenyl)-N-(6-(4-isopropyl-4H-1,2,4-triazol-3-yl)pyridin-2-yl)-1H-pyrrole-2-carboxamide]"
7,5.3,"CC(C)n1cnnc1-c1cccc(NC(=O)c2ccc(-c3ccc(F)c(Cl)c3)[nH]2)n1 [Example 20, 5-(3-chloro-4-fluorophenyl)-N-(6-(4-isopropyl-4H-1,2,4-triazol-3-yl)pyridin-2-yl)-1H-pyrrole-2-carboxamide]"
8,5.1,"Cc1ccccc1-c1ccc(C(=O)Nc2cccc(-c3nncn3C(C)C)n2)[nH]1 [Example 22, N-(6-(4-isopropyl-4H-1,2,4-triazol-3-yl)pyridin-2-yl)-5-o-tolyl-1H-pyrrole-2-carboxamide]"
9,4.8,"Cc1ccc(-c2ccc(C(=O)Nc3cccc(-c4nncn4C(C)C)n3)[nH]2)cc1C [Example 18, 5-(3,4-dimethylphenyl)-N-(6-(4-isopropyl-4H-1,2,4-triazol-3-yl)pyridin-2-yl)-1H-pyrrole-2-carboxamide]"
10,3.1,"CSc1ccc(-c2ccc(C(=O)Nc3cccc(-c4nncn4C(C)C)n3)[nH]2)cc1 [Example 21, N-(6-(4-isopropyl-4H-1,2,4-triazol-3-yl)pyridin-2-yl)-5-(4-(methylthio)phenyl)-1H-pyrrole-2-carboxamide]"
